Measured values as given in patent US11642362B2, “Methods of inhibiting cell proliferation and METTL8 activity” (NATIONAL UNIVERSITY OF SINGAPORE, priority 2017, dated 2023).

How the values were obtained:
[1] = test system: pS/TQ motif on Mettl8; assay: Flag IP and pS/TQ immunoblot of Flag-Mettl8 in HCT116 stable cells; assay type: cell-based, human
Text: Since both ATM and p53 are tumor suppressors in response to DNA damage, inventors further explored the function of Mettl8 in DNA damage. […] Equal amount of lysates were subject to Flag immunoprecipitation (“IP”) with M-2 beads and washed extensively before being resolved on SDS-PAGE and followed by immunoblotting with an phosphorylation-specific antibody against pS/TQ motif (Cell signaling) and a Flag antibodu. The lysates were immunoblotted by anti-Flag, Actin, ATM pS1981, Chk2 pT68 and p53 p515 antibodies.
In this experiment, equal amount of lysate was immunopurified with M2 beads and probed for pS/TQ antibody, the lysate was checked for antibodies indicated in FIG. 7C.
Equal amounts of lysate were immunopurified with M2 beads and probed for pS/TQ antibody, the lysate was checked for antibodies indicated.

[2] = test system: ATM, KAP1, Chk2, p53; assay: ATM inhibitor pre-treatment of Mettl8 mutant or knockout cells before irradiation (immunoblot); assay type: cell-based; details: Mettl8 mutant or knockout cells pre-treated with ATM inhibitor before irradiation
[3] = test system: Mettl8 mRNA; assay: Real-time PCR of Mettl8 mRNA in ESCs / E14 cells treated with STAT3 inhibitors; assay type: cell-based, mouse; details: for Mettl8 mRNA expression (real-time PCR): E14 cells treated for 6 hr; for Mettl8 mRNA (real-time PCR): ESCs treated with 10 μM STAT3 inhibitor for 1 hr
Protocol: To investigated how STAT3 crosstalk with other potential pathways in pluripotency of embryonic stem cells (“ESCs”), inventors tried to identify factors that were regulated by STAT3 using mouse ESCs treated with STAT3 inhibitors STA-21 and STATTIC. Real-time PCR was performed to screen for changes when embryonic stem cells (ESCs) were treated with STAT3 inhibitor 10 μM STA-21 and STATTIC for 1 hr. RNAs were extracted with TRIZOL followed by reverse transcription. Total RNAs were extracted from E14 cells treated with STA-21 and STATTIC for 6 hr and analyzed by real-time PCR. […] The data are shown as the mean±SD from three independent experiments (*p<0.05). The cell lysates from treated E14 cells were also analyzed by Western blot. Consistent with the mRNA expression, the protein levels of Mettl8 were reduced with presence of STA-21 and STATTIC (FIG. 5J). The value of each band was calculated from three independent replicates and indicates the relative expression level after normalizing to the loading control Actin.

[4] = test system: Mettl8; assay: Western blot of Mettl8 protein in E14 cells treated with STAT3 inhibitors; assay type: cell-based, mouse
Protocol: Total RNAs were extracted from E14 cells treated with STA-21 and STATTIC for 6 hr and analyzed by real-time PCR. […] The data are shown as the mean±SD from three independent experiments (*p<0.05). The cell lysates from treated E14 cells were also analyzed by Western blot. Consistent with the mRNA expression, the protein levels of Mettl8 were reduced with presence of STA-21 and STATTIC (FIG. 5J). The value of each band was calculated from three independent replicates and indicates the relative expression level after normalizing to the loading control Actin.

[5] = test system: ATM; assay: Camptothecin treatment of HCT116 WT and METTL8 KO cells, ATM activation immunoblot; assay type: cell-based, human; details: 10 μM camptothecin 0-24 hr; Mettl8 knockout HCT116 cells compared with WT
Protocol: HCT116 WT and METTL8 KO cells were treated with 10 μM camptothecin for 0 h, 1 hr, 3 hr, 6 hr, 16 hr, and 24 hr. Equal amount of lysates were resolved on SDS-PAGE followed by immunoblotting with antibodies.

[6] = test system: HCT116 wildtype and Mettl8 knockout cells; assay: Cisplatin sensitivity MTS assay; assay type: cell-based, human; details: Mettl8 knockout versus wildtype HCT116 cells
Protocol: (§1) To further study the relationship between cisplatin and Mettl8, MTS and colony survival assays were performed. In the MTS assay, HCT116 wildtype and Mettl8 knockout cells were seed in 96 well at 1000 cell/well density and treated with different dose of cisplatin. In the colony survival assay, 500 cells per well of HCT116 control and Mettl8 knockout cells were seeded into 6-well plates in triplicate and subjected to different dosage of cisplatin treatment for 2 h.

[7] = test system: Mettl8 protein; assay: Mettl8 protein level after cisplatin treatment (SDS-PAGE, immunoblotting); assay type: cell-based, human; details: 293T, HCT116 and HepG2 cells; cisplatin 0, 10, 30, 60, 100, 150 μM for 24 h
Protocol: To further study modulation of Mettl8 protein, 293T, HCT116, and HepG2 cells were treated with different dosage of cisplatin (0, 10, 30, 60, 100, and 150 μM) for 24 h before cell lysates were collected and subjected to SDS-PAGE followed by immunoblotting with Mettl8 and Hsp90 antibodies.

[8] = test system: Mettl8; assay: Mettl8 expression after treatment with interstrand crosslinking agents; assay type: cell-based
[9] = test system: HCT116 control and Mettl8 knockout cells; assay: Cisplatin sensitivity colony survival assay; assay type: cell-based, human; details: Mettl8 knockout versus control HCT116 cells; cisplatin 2 h, grown a week
Protocol: as §1
Cells were grown in fresh media for a week and the survival cell colonies were fixed and stained with crystal violet. Colonies with more than 50 cells were counted. The result was presented in ±SEM of percentage of colonies survived compared to untreated samples. […] This effect is dependent on p53 for cisplatin induced apoptosis (data not shown). This difference in sensitivity could be exploited in clinical context that patients with functional p53 and low Mettl8 tumor may benefit more from cisplatin treatment instead of radiotherapy.

[10] = test system: HCT116 cells; assay: Cell growth (colony formation) assay, crystal violet; assay type: cell-based, human; details: HCT116, 500 cells/well, 7 days, versus scramble shRNA / empty vector
Protocol: (§2) In the soft agar colony assay, HCT116 cells with Mettl8 wt or ΔSAM were seeded at 500 cells/well in 6-well plate in triplicate and after 2-week colonies grown up in soft agar was shown. Colonies with more than 50 cells were counted with Quantity One software. […] 7 days later, cells were fixed and stained with crystal violet. The images of plates were collected with ImageLab software.

[11] = test system: Mettl8; assay: STAT3 shRNA knockdown in E14 cells, Mettl8 mRNA and protein; assay type: cell-based, mouse; details: Luc shRNA as control
Protocol: Luc shRNA was used as control. Data in FIG. 5K are shown as the mean±SD from three independent experiments. The value of each band in FIG. 5L was calculated from three independent replicates and indicates the relative expression level after normalizing to the loading control Actin.

[12] = test system: Mettl8; assay: shRNA knockdown of Mettl8 in HCT116 (lentivirus, Western blotting); assay type: cell-based, human; details: HCT116, lentiviral pLKO1 shRNA, 72 h
Protocol: To study the functions of Mettl8, hairpin shRNA was ordered and cloned into pLKO1 vector by AgeI/EcoRI, with the following sequence:
The hairpin sequences in the shRNA were underlined. […]. Supernatant was harvested after 48 hours and cleared by filtration. Then viral solution was added to fresh HCT116 culture in the presence of 6 ug/ml polybrene. After 72 h, the cells were lysed and equal amount of lysate was resolved on SDS-PAGE for knock down efficiency by Western blotting with anti-Mettl8 and actin antibodies as indicated in FIG. 2.

[13] = 3H-SAM binding assay with GST-Mettl8 proteins on beads, scintillation counting; set-up: species or system human; details: recombinant purified GST-Mettl8 wt and SAM mutant
Protocol: To test the ability of Mettl8 to bind SAM, equal amounts of GST, GST-Mettl8 WT and mutant proteins were conjugated on Glutathione sepharose 4B beads and incubated with ^3H-SAM for 30 min at 30° C. with empty beads control. After extensive washing, the beads were transferred to scintillation tubes and measured on liquid scintillation counter in triplicate.
(§3) As ATM is essential for cell checkpoint, the cell cycle profiles were studies in this experiment. The plasmid containing the cDNA of human Mettle8 SAM deletion mutant was constructed by PCR based mutagenesis method to delete the specific nucleotide sequence in the SAM domain as shown in FIG. 7A. After the plasmid was transfected into HCT116 wildtype cells, stable colonies of cell containing the plasmid were selected, which were called Mettl8 ΔSAM cells. The Mettle8 ΔSAM variant cDNA was also transduced into human skin fibroblast as shown in FIG. 7N by a lentivirus based method. These HCT116 stable cells were examined in cell cycle analysis (FIG. 9A) and soft agar colony assay (FIG. 9B).

[14] = test system: HCT116 cells; assay: Soft agar colony assay; assay type: cell-based, human; details: HCT116 stable cells, 500 cells/well, 2 weeks, compared to empty vector
Protocol: as §2

[15] = test system: HCT116 stable cells; assay: Cell cycle profiling by FACS of HCT116 stable cells; assay type: cell-based, human; details: un-stressed conditions, versus empty vector and wild-type Mettl8
Text: as §3
In addition, HCT116 stable cells with Mettl8 variant were fixed with 70% ethanol and stained with pI followed by cell cycle profiling on FACS and data were analysed with FlowJo software.

For `O=c1cc(-c2cccc3c2Sc2ccccc2S3)oc(N2CCOCC2)c1` [Ku55933], the “prevention of Mettl8 phosphorylation by IR” value ([1]; 1 μM Ku55933 pretreatment 1 hour, 10 Gy, harvested 1 h later, doses 0.1, 1, 5 μM tested) was “sufficient to prevent the phosphorylation of Mettl8”, the “irradiation-induced phosphorylation at the pS/TQ motif of Flag-Mettl8” value ([1]; HCT116 Flag-Mettl8 cells pretreated 1 hour with inhibitor (AZD7762 0.5 μM), then 10 Gy) was “reduced the phosphorylation” and the “hyper activation of ATM, KAP1, Chk2, p53 by irradiation” value [2] was “either reverted or eliminated the hyper activation”.

For `CC1CC(=O)c2c(ccc3c2C(=O)c2cccc(O)c2C3=O)C1` (stereo not shown) [STA-21, 8-hydroxy-3-methyl-3,4-dihydrotetraphene-1,7,12(2H)-trione], the “Mettl8 mRNA expression (real-time PCR)” value [3] was “inhibited”, the “Mettl8 mRNA (real-time PCR)” value [3] was “downregulated” and the “Mettl8 protein levels (Western blot)” value [4] was “reduced”.

In the case of `O=[N+]([O-])c1ccc2c(c1)S(=O)(=O)C=C2` [STATTIC, 6-Nitrobenzo[b]thiophene 1,1-dioxide], the “Mettl8 mRNA expression (real-time PCR)” value [3] is reported as “inhibited”, the “Mettl8 mRNA (real-time PCR)” value [3] is reported as “downregulated” and the “Mettl8 protein levels (Western blot)” value [4] is reported as “reduced”.

For `CC[C@@]1(O)C(=O)OCc2c1cc1n(c2=O)Cc2cc3ccccc3nc2-1` [camptothecin], the ATM activation [5] was “caused hyperactivation of ATM”.

For `N.N.[Cl][Pt][Cl]` [cisplatin], the “sensitivity to cisplatin treatment (MTS assay)” value [6] was “more sensitive”, the Mettl8 protein level [7] was “dramatically reduced” and the “Mettl8 expression at transcriptional level” value [8] was “downregulated at transcriptional level”. The “sensitivity to cisplatin treatment (colony survival assay)” value [9] was “more sensitive”.

In the case of `CO[C@@]12[C@H](COC(N)=O)C3=C(C(=O)C(C)=C(N)C3=O)N1C[C@@H]1N[C@@H]12` [mitomycin C], the “Mettl8 expression at transcriptional level” value [8] is reported as “downregulated at transcriptional level”.

For “Mettl8 shRNA2: shRNA sequence GCGAGAGAATCATCATGGGAT, SEQ ID No: 3”, the colony formation [10] was “significantly reduced the colony formation”.

In the case of “STAT3 shRNA: shRNA sequence TTTGTGCTTAGGATGGCCC, SEQ ID No: 7; full sequence SEQ ID No: 8 (GATCCCCGGGCCATCCTAAGCACAAATTCAAGAGATTTGTGCTTAGGATGGCCCTTTTTA)”, the “Mettl8 mRNA” value [11] is reported as “downregulation” and the Mettl8 protein [11] is reported as “downregulation”.

With “shRNA: hairpin shRNA against Mettl8 cloned into pLKO1, SEQ ID NO: 15; hairpin matches M8 shRNA1 GTTGAGGGAATTTCCTGAAAT (CCGGGTTGAGGGAATTTCCTGAAATCTCGAGATTTCAGGAAATTCCCTCAACTTTTTTG)” the “Mettl8 expression (knock down efficiency, Western blotting)” value [12] was “can knock down the expression of Mettl8”.

B1: Mettl8 ASAM variant: human Mettl8 variant with SAM domain deletion (aa 200-208), SEQ ID No. 18; competes with endogenous Mettl8 (protein)
chain: MNMIWRNSISCLRLGKVPHRYQSGYHPVAPLGSRILTDPAKVFEHNMWDHMQWSKEEEAAARKKVKENSAVRVLLEEQVKYEREASKYWDTFYKIHKNKFFKDRNWLLREFPEILPVDQKPEEKARESSWDHVKTSATNRFSRMHCPTVPDEKNHYEKSSGSSEGQSKTESDFSNLDSEKHKKGPMETGLFPGSNATFRNSVFPILNTLENSPESFLYCCDFASGAVELVKSHSSYRATQCFAFVHDVCDDGLPYPFPDGILDVILLVFVLSSIHPDRMQGVVNRLSKLLKPGGMLLFRDYGRYDKTQLRFKKGHCLSENFYVRGDGTRAYFFTKGEVHSMFCKASLDEKQNLVDRRLQVNRKKQVKMHRVWIQGKFQKPLHQTQNSSNMVSTLLSQD
For B1, the “binding of SAM” value [13] was “lost the ability to bind the SAM donor molecule”, the “soft agar colony numbers” value [14] was “much reduced colony numbers” and the cell cycle profile [15] was “more accumulation of G2/M populations”.
